Experimental data published in US10618937B2, “Method of treating Alzheimer's disease” (INDUSTRY-ACADEMIC COOPERATION FOUNDATION GYEONGSANG …, priority 2016, dated 2020).

What was measured:
APP/PS1 model group = assay: In vivo electrophysiology and LTP analysis (hippocampus slice); parameters: species or system mice; details: hippocampus slice CA1, after pairing stimuli, treated APP/PS1 model group
Protocol: A hippocampus slice was prepared from adult mice to examine the CA1 circuit from the cross-sectional schaffer collateral (SC) input in the hippocampus slice ([…] thickness). Briefly, after anesthetizing the mice with isoflurane, the brains were quickly cooled by transcardiac perfusion with ice-cold cross-cerebrospinal fluid (CSF). After the brain was removed, the brains were stored in ice-cold sucrose-artificial CSF. A coronal section was cultured in artificial CSF at a temperature of 35° C. for 30 minutes, and cultured in artificial CSF at room temperature (23° C. to 25° C.) for 1 to 4 hours before being transferred to the recording chamber. […]
LTP experiments were performed at 27° C. to 29° C. […] Stimulation was applied to the shaper-side branch (SC) pathway using a concentrated bipolar electrode located at […] from the soma of the recorded cells. […] In the LTP experiment, baseline EPSCs were measured for 3 min before applying the pairing stimuli (2 Hz, 2-minute stimulation, and post-synaptic depolarization to 0 mV). […]

[1] = system: APP-transfected HT-22 cells; assay: Western blot analysis of proteins isolated from APP-transfected HT-22 cells; assay type: cell-based; details: 1, 5, 10 or 20 μM
Protocol: SH-SY5Y cells and HT-22 cells were inoculated into a culture flask containing the medium, and cultured until reaching the confluency of 70% to 75%. The pCAX vector with the APPswe/ind gene was transfected for 48 hours by using Lipofectamine 3000 (Life technologies) according to the manufacturers instructions.
Protein concentrations were measured by using a BIORAD protein assay kit (BIORAD LABORATORIES, CA, USA). Equal amounts of protein (15 to 25 μg) were electrophoresed under the same experimental conditions using 4 to 12% BLOT™ minigel and MES SDS electrophoresis buffer (running buffer) 1×(NOVEX, LIFE TECHNOLOGIES, Kiryat Shmona, Israel), and a broad range prestained protein marker (GANGNAM STAIN™, Intron Biotechnology) was used as the control for the molecular size. To reduce nonspecific binding, the membranes used were blocked with 5% (w/v) skim milk and reacted with a primary antibody (a 1:1000 dilution) overnight at 4° C. After an appropriate reaction with a horseradish peroxidase (HRP)-binding secondary antibody, proteins were detected by using an ECL detection reagent (AMERSHAM PHARMECIA BIOTECH, Uppsala, Sweden) according to the manufacturer's instructions. The X-ray film was scanned and the optical density of the band was analyzed using a densitometry using a computer-based Sigma Gel program, version 1.0 (SPSS, Chicago, Ill., USA).
For use as the primary antibody, anti-amyloid β (Aβ), anti-APP, anti-AdipoR1 (Adiponectin receptor 1), anti-phospho-AMPK, anti-SNAP-25 (Synaptosomal-Associated Protein 25), anti-SAP-102, anti-Syanpatophysin, phospho-Tau (Ser 413), anti-p-mTOR, anti-p-ULK1, and anti-β-actin were used.

RGPCG (adiponectin receptor-activating peptide) [5AA1]
level of EPSC enhancement (LTP) (APP/PS1 model group): almost the same as that of the normal group
expression of AdipoR1 protein [1]: expressed more
expression of p-AMPK protein [1]: expressed more
expression level of amyloid β (Aβ) ([1]; normalized with β-actin): significantly reduced
expression level of β-amyloid precursor protein (APP) ([1]; normalized with β-actin): significantly reduced
